Results reported in patent publication US20260232767A1, “INTERLEUKIN-23 RECEPTOR ANTAGONIST PEPTIDES FOR USE IN THE TREATMENT OF PSORIASIS” (Janssen Pharmaceutica NV, priority 2023, published 2026).

System: subjects with moderate-to-severe plaque psoriasis
Experiment: Safety, adverse events, Example 2 through Week 56
Assay type: in vivo, human
Text: The LTE safety analysis was based on randomized participants in Example who entered the present long-term extension study and received at least one dose of study intervention (including a partial dose) during the study period.

[1] = 25 mg QD, Week 16 through Week 56

CC(=O)NCCCC[C@@H]1NC(=O)[C@H](Cc2c[nH]c3c(C)cccc23)NC(=O)[C@H]([C@@H](C)O)NC(=O)[C@H](CC(N)=O)NC(=O)[C@@H](NC(C)=O)C(C)(C)SSC(C)(C)[C@@H](C(=O)N[C@@H](Cc2ccc(OCCN)cc2)C(=O)N[C@@H](Cc2ccc3ccccc3c2)C(=O)NC2(C(=O)N[C@@H](CCC(=O)O)C(=O)N[C@@H](CC(N)=O)C(=O)N[C@@H](Cc3cccnc3)C(=O)N(C)CC(N)=O)CCOCC2)NC1=O [IL-23 receptor antagonist peptide, Ac-[Pen]*-N-T-[W(7-Me)]-[Lys(Ac)]-[Pen]*-Phe[4-(2-aminoethoxy)]-[2-Nal]-[THP]-E-N-[3-Pal]-Sarc-NH2 (*[Pen]-[Pen]* formdisulfidebond)]
Ketonuria: number of subjects (25 mg BID, through Week 56): 0
Leukocyturia: number of subjects (25 mg BID, through Week 56): 0
Leukopenia: number of subjects (25 mg BID, through Week 56): 0
Libido decreased: number of subjects (25 mg BID, through Week 56): 0
Liver disorder: number of subjects (25 mg BID, through Week 56): 0
Lymphopenia: number of subjects (25 mg BID, through Week 56): 0
Menopause: number of subjects (25 mg BID, through Week 56): 0
Metabolism and nutrition disorders: % of subjects (25 mg BID, through Week 56): (7.3%)
Metabolism and nutrition disorders: number of subjects (25 mg BID, through Week 56): 3
Neoplasms benign, malignant and unspecified (incl cysts and polyps): % of subjects (25 mg BID, through Week 56): (2.4%)
Neoplasms benign, malignant and unspecified (incl cysts and polyps): number of subjects (25 mg BID, through Week 56): 1
Nephrolithiasis: number of subjects (25 mg BID, through Week 56): 0
Neutropenia: number of subjects (25 mg BID, through Week 56): 0
Night sweats: number of subjects (25 mg BID, through Week 56): 0
Non-cardiac chest pain: number of subjects (25 mg BID, through Week 56): 0
Ocular cyst: number of subjects (25 mg BID, through Week 56): 0
Oedema peripheral: number of subjects (25 mg BID, through Week 56): 0
Oropharyngeal pain: number of subjects (25 mg BID, through Week 56): 0
Procedural pain: number of subjects (25 mg BID, through Week 56): 0
Productive cough: number of subjects (25 mg BID, through Week 56): 0
Proteinuria: number of subjects (25 mg BID, through Week 56): 0
Pruritus: number of subjects (25 mg BID, through Week 56): 0
Psoriasis: % of subjects (25 mg BID, through Week 56): (2.4%)
Psoriasis: number of subjects (25 mg BID, through Week 56): 1
Psychiatric disorders: % of subjects (25 mg BID, through Week 56): (2.4%)
Psychiatric disorders: number of subjects (25 mg BID, through Week 56): 1
Pyrexia: number of subjects (25 mg BID, through Week 56): 0
Rash pruritic: number of subjects (25 mg BID, through Week 56): 0
Renal and urinary disorders: number of subjects (25 mg BID, through Week 56): 0
Renal mass: number of subjects (25 mg BID, through Week 56): 0
Respiratory, thoracic and mediastinal disorders: % of subjects (25 mg BID, through Week 56): (2.4%)
Respiratory, thoracic and mediastinal disorders: number of subjects (25 mg BID, through Week 56): 1
Retinal vein occlusion: number of subjects (25 mg BID, through Week 56): 0
Rhinorrhoea: number of subjects (25 mg BID, through Week 56): 0
Seasonal allergy: number of subjects (25 mg BID, through Week 56): 0
Skin and subcutaneous tissue disorders: % of subjects (25 mg BID, through Week 56): (4.9%)
Skin and subcutaneous tissue disorders: number of subjects (25 mg BID, through Week 56): 2
Skin laceration: number of subjects (25 mg BID, through Week 56): 0
Skin papilloma: number of subjects (25 mg BID, through Week 56): 0
Social circumstances: number of subjects (25 mg BID, through Week 56): 0
Steatohepatitis: number of subjects (25 mg BID, through Week 56): 0
Subjects with AE leading to discontinuation: Abdominal discomfort (25 mg BID, through Week 56): 0
Subjects with AE leading to discontinuation: Abdominal pain (25 mg BID, through Week 56): 0
Subjects with AE leading to discontinuation: Alanine aminotransferase increased (25 mg BID, through Week 56): 0
Subjects with AE leading to discontinuation: Aspartate aminotransferase increased (25 mg BID, through Week 56): 0
Subjects with AE leading to discontinuation: Ear and labyrinth disorders (25 mg BID, through Week 56): 0
Subjects with AE leading to discontinuation: Gamma-glutamyltransferase increased (25 mg BID, through Week 56): 0
Subjects with AE leading to discontinuation: Investigations (25 mg BID, through Week 56): 0
Subjects with AE leading to discontinuation: Nausea (25 mg BID, through Week 56): 0
Subjects with AE leading to discontinuation: Suicide attempt (25 mg BID, through Week 56): 0
Subjects with AE leading to discontinuation: Transaminases increased (25 mg BID, through Week 56): 0
Subjects with AE leading to discontinuation: Vertigo (25 mg BID, through Week 56): 0
Subjects with AE leading to discontinuation: Vomiting (25 mg BID, through Week 56): 0
Subjects with AE leading to discontinuation: Weight increased (25 mg BID, through Week 56): 0
Subjects with COVID-19 associated AE: SARS-CoV-2 test positive (25 mg BID, through Week 56): 0
Subjects with treatment-emergent AE: Arthralgia (25 mg BID, through Week 56): 0
Subjects with treatment-emergent AE: Cough (25 mg BID, through Week 56): 0
Subjects with treatment-emergent AE: Nasopharyngitis (25 mg BID, through Week 56): 8
Subjects with treatment-emergent serious AE: COVID-19 (25 mg BID, through Week 56): 0
Subjects with treatment-emergent serious AE: Cerebrovascular accident (25 mg BID, through Week 56): 0
Subjects with treatment-emergent serious AE: Coronary artery disease (25 mg BID, through Week 56): 0
Subjects with treatment-emergent serious AE: Diverticulitis (25 mg BID, through Week 56): 0
Subjects with treatment-emergent serious AE: Foot deformity (25 mg BID, through Week 56): 0
Subjects with treatment-emergent serious AE: General disorders and administration site conditions (25 mg BID, through Week 56): 0
Subjects with treatment-emergent serious AE: Infected cyst (25 mg BID, through Week 56): 0
Subjects with treatment-emergent serious AE: Infections and infestations (25 mg BID, through Week 56): 0
Subjects with treatment-emergent serious AE: Intervertebral disc protrusion (25 mg BID, through Week 56): 0
Subjects with treatment-emergent serious AE: Musculoskeletal and connective tissue disorders (25 mg BID, through Week 56): 0
Subjects with treatment-emergent serious AE: Neoplasms benign, malignant and unspecified (incl cysts and polyps) (25 mg BID, through Week 56): 0
Subjects with treatment-emergent serious AE: Nervous system disorders (25 mg BID, through Week 56): 0
Subjects with treatment-emergent serious AE: Non-cardiac chest pain (25 mg BID, through Week 56): 0
Subjects with treatment-emergent serious AE: Psychiatric disorders (25 mg BID, through Week 56): 0
Subjects with treatment-emergent serious AE: Suicide attempt (25 mg BID, through Week 56): 0
Subjects with treatment-emergent serious AE: Uterine leiomyoma (25 mg BID, through Week 56): 0
Suicide attempt: number of subjects (25 mg BID, through Week 56): 0
Sunburn: % of subjects (25 mg BID, through Week 56): (2.4%)
Sunburn: number of subjects (25 mg BID, through Week 56): 1
Thrombocytopenia: number of subjects (25 mg BID, through Week 56): 0
Thrombocytosis: number of subjects (25 mg BID, through Week 56): 0
Tonsillar hypertrophy: % of subjects (25 mg BID, through Week 56): (2.4%)
Tonsillar hypertrophy: number of subjects (25 mg BID, through Week 56): 1
Tooth fracture: number of subjects (25 mg BID, through Week 56): 0
Type 2 diabetes mellitus: number of subjects (25 mg BID, through Week 56): 0
Urinary tract disorder: number of subjects (25 mg BID, through Week 56): 0
Uterine leiomyoma: number of subjects (25 mg BID, through Week 56): 0
Vascular disorders: % of subjects (25 mg BID, through Week 56): (4.9%)
Vascular disorders: number of subjects (25 mg BID, through Week 56): 2
Ventricular dysfunction: % of subjects (25 mg BID, through Week 56): (2.4%)
Ventricular dysfunction: number of subjects (25 mg BID, through Week 56): 1
Vertigo: number of subjects (25 mg BID, through Week 56): 0
Vitamin D deficiency: % of subjects (25 mg BID, through Week 56): (2.4%)
Vitamin D deficiency: number of subjects (25 mg BID, through Week 56): 1
Number of subjects with treatment-emergent AE: Cholelithiasis [1]: 0
Number of subjects with treatment-emergent AE: Ear and labyrinth disorders [1]: 1
Number of subjects with treatment-emergent AE: Endocrine disorders [1]: 0
Number of subjects with treatment-emergent AE: Eye disorders [1]: 0
Number of subjects with treatment-emergent AE: Eyelid skin dryness [1]: 0
Number of subjects with treatment-emergent AE: Goiter [1]: 0
Number of subjects with treatment-emergent AE: Hepatobiliary disorders [1]: 0
Number of subjects with treatment-emergent AE: Hypertransaminasemia [1]: 0
Number of subjects with treatment-emergent AE: Immune system disorders [1]: 0
Number of subjects with treatment-emergent AE: Insomnia [1]: 0
Number of subjects with treatment-emergent AE: Ocular cyst [1]: 0
Number of subjects with treatment-emergent AE: Psychiatric disorders [1]: 0
Number of subjects with treatment-emergent AE: Retinal vein occlusion [1]: 0
Number of subjects with treatment-emergent AE: Seasonal allergy [1]: 0
Number of subjects with treatment-emergent AE: Vertigo [1]: 1
Subjects with treatment-emergent AE: Ear and labyrinth disorders (%) [1]: (2.9%)
Subjects with treatment-emergent AE: Vertigo (%) [1]: (2.9%)
Acrochordon: number of subjects (25 mg QD, through Week 56): 0
Actinic keratosis: number of subjects (25 mg QD, through Week 56): 0
Alopecia: % of subjects (25 mg QD, through Week 56): (2.3%)
Alopecia: number of subjects (25 mg QD, through Week 56): 1
Asthenia: number of subjects (25 mg QD, through Week 56): 0
Asthma: number of subjects (25 mg QD, through Week 56): 0
Atrioventricular block first degree: number of subjects (25 mg QD, through Week 56): 0
Basal cell carcinoma: number of subjects (25 mg QD, through Week 56): 0
Blood and lymphatic system disorders: % of subjects (25 mg QD, through Week 56): (2.3%)
Blood and lymphatic system disorders: number of subjects (25 mg QD, through Week 56): 1
Bronchitis chronic: number of subjects (25 mg QD, through Week 56): 0
Bundle branch block right: number of subjects (25 mg QD, through Week 56): 0
